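Values below derive from 48-hour exposures of cells grown in 96-well plates, with endpoints linearly interpolated between the two concentrations bracketing the appropriate inhibition level. GI50 marks 50% less growth. Definition used: TGI = concentration required for complete inhibition of growth.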
Experiments:
Test in all cases: NCI tumour cell line growth inhibition, 48 h
[1] = test system: KM12 colon
[2] = test system: SN12C renal
[3] = test system: UO-31 renal
[4] = test system: SK-MEL-28 melanoma
[5] = test system: COLO 205 colon
[6] = test system: RPMI-8226 leukemia
[7] = test system: OVCAR-3 ovarian
[8] = test system: HL-60(TB) leukemia
[9] = test system: OVCAR-4 ovarian
[10] = test system: CAKI-1 renal

## Cc1c2ccccc2cc2cccc[n+]12
[1]
  TGI: 53 µM
[2]
  TGI: > 100 µM
[3]
  TGI: 83.5 µM
[4]
  TGI: 70.5 µM
[5]
  TGI: > 100 µM
[6]
  TGI: > 100 µM
[7]
  TGI: > 100 µM
[8]
  TGI: > 100 µM

## COc1cc2cc[n+](C)c(Cc3ccc(Oc4cc(Cc5c6cc(OC)c(OC)cc6cc[n+]5C)ccc4OC)cc3)c2cc1OC
[1]
  TGI: > 100 µM
[2]
  TGI: > 100 µM
[3]
  TGI: > 100 µM
[4]
  TGI: > 100 µM
[5]
  TGI: > 100 µM
[6]
  TGI: > 100 µM
[7]
  TGI: > 100 µM
[8]
  TGI: > 100 µM
[9]
  TGI: > 100 µM
[10]
  TGI: > 100 µM

## Oc1ccc(Cl)cc1C1=Nn2c(COc3ccc4c(c3)CCCC4)nnc2SC1
[1]
  TGI: 29.8 µM
[2]
  TGI: 19.9 µM
[3]
  TGI: 23.4 µM
[4]
  TGI: 14.4 µM
[5]
  TGI: 31.3 µM
[6]
  TGI: 19.3 µM
[7]
  TGI: 29.8 µM
[8]
  TGI: 38.2 µM
[9]
  TGI: 13.8 µM
[10]
  TGI: 49.6 µM

## CC(NC(=O)c1ccc(OP(=O)(OCc2ccc([N+](=O)[O-])o2)N(C)CCCCCl)cc1)c1ccc(OCC2CCCCC2)c(C(N)=O)c1 (stereo not drawn)
[1]
  TGI: 13.5 µM
[2]
  TGI: 6.15 µM
[3]
  TGI: 6.39 µM
[4]
  TGI: 7 µM
[5]
  TGI: 6.24 µM
[6]
  TGI: 3.24 µM
[7]
  TGI: 15.7 µM
[8]
  TGI: 12.3 µM
[9]
  TGI: 17.7 µM
[10]
  TGI: > 58 µM

## COc1ccc(-n2nc(C(=O)c3ccccc3)c3nn4c(=O)cc(-c5ccccc5)nc4nc32)cc1
[1]
  GI50: 46.5 µM
  TGI: > 100 µM
[2]
  GI50: 41.7 µM
  TGI: > 100 µM
[3]
  GI50: 28.6 µM
  TGI: > 100 µM
[4]
  GI50: 38.3 µM
  TGI: > 100 µM
[5]
  GI50: 29.1 µM
  TGI: > 100 µM
[6]
  GI50: 40 µM
  TGI: > 100 µM
[7]
  GI50: 30.7 µM
  TGI: > 100 µM
[8]
  GI50: 29.6 µM
  TGI: > 100 µM
[9]
  GI50: 30.5 µM
  TGI: > 100 µM
[10]
  GI50: > 100 µM
  TGI: > 100 µM

## CN(CCN1C(=O)c2cccc3cccc(c23)C1=O)CCN1C(=O)c2cccc3cccc(c23)C1=O
[1]
  TGI: > 100 µM
[2]
  TGI: > 100 µM
[3]
  TGI: 28.8 µM
[4]
  TGI: > 100 µM
[5]
  TGI: 16.5 µM
[7]
  TGI: 74.8 µM
[8]
  TGI: > 100 µM
[9]
  TGI: > 100 µM
[10]
  TGI: > 100 µM

## C#C[C@]1(O)[C@@H](CO)O[C@@H](n2ccc(=O)[nH]c2=O)[C@@H]1O
[1]
  TGI: > 100 µM
[3]
  TGI: 0.183 µM
[4]
  TGI: 31.3 µM
[5]
  TGI: 0.173 µM
[6]
  TGI: > 100 µM
[8]
  TGI: > 100 µM
[9]
  TGI: 45.3 µM

## O=C1/C(=C/c2ccc([N+](=O)[O-])cc2)Sc2scc(-c3cccc([N+](=O)[O-])c3)[n+]21
[1]
  TGI: 24.6 µM
[2]
  TGI: 17.3 µM
[3]
  TGI: 22 µM
[5]
  TGI: 3.69 µM
[6]
  TGI: 11.4 µM
[7]
  TGI: 15.2 µM
[8]
  TGI: 1.07 µM
[9]
  TGI: 31.4 µM
[10]
  TGI: 7.03 µM

## C=C(CN(C)C)C(=O)c1ccccc1Cl
[1]
  TGI: > 75 µM
[2]
  TGI: 42.3 µM
[3]
  TGI: 33.6 µM
[4]
  TGI: 19.4 µM
[5]
  TGI: 29.3 µM
[6]
  TGI: 82.3 µM
[7]
  TGI: 34.9 µM
[8]
  TGI: 29.6 µM
[9]
  TGI: 40.8 µM
[10]
  TGI: 30.9 µM

## OC1CCSc2ccccc21 (stereo not drawn)
[1]
  TGI: > 100 µM
[2]
  TGI: > 100 µM
[3]
  TGI: > 100 µM
[4]
  TGI: > 100 µM
[5]
  TGI: > 100 µM
[6]
  TGI: > 100 µM
[7]
  TGI: > 100 µM
[9]
  TGI: > 100 µM
[10]
  TGI: > 100 µM

## COc1ccc2c3c([nH]c2c1)[C@H](C=C(C)C)N1C(=O)[C@@H]2CCCN2C(=O)[C@@H]1C3
[1]
  TGI: > 100 µM
[2]
  TGI: > 100 µM
[3]
  TGI: > 100 µM
[4]
  TGI: 55.5 µM
[5]
  TGI: > 100 µM
[6]
  TGI: > 100 µM
[7]
  TGI: > 100 µM
[8]
  TGI: > 100 µM
[9]
  TGI: > 100 µM
[10]
  TGI: > 100 µM

## CC(C)C(=O)CC(c1ccc(Br)cc1)N1N=C(C(C)C)CC1c1ccc(Br)cc1 (stereo not drawn)
[1]
  TGI: > 100 µM
[2]
  TGI: > 100 µM
[3]
  TGI: > 100 µM
[4]
  TGI: > 100 µM
[5]
  TGI: > 100 µM
[7]
  TGI: > 100 µM
[9]
  TGI: > 100 µM
[10]
  TGI: > 100 µM

## CN(CCc1ccccn1)c1ccc2c(c1)Cc1ccccc1-2
[1]
  TGI: 37.7 µM
[2]
  TGI: > 100 µM
[3]
  TGI: > 100 µM
[4]
  TGI: > 100 µM
[5]
  TGI: 41.4 µM
[6]
  TGI: 84.7 µM
[7]
  TGI: > 100 µM
[8]
  TGI: 59.3 µM
[9]
  TGI: 97.7 µM
[10]
  TGI: > 100 µM

## Fc1c(F)c(F)c(CSc2nc3ccccc3[nH]2)c(F)c1F
[1]
  TGI: > 100 µM
[2]
  TGI: > 100 µM
[3]
  TGI: > 100 µM
[4]
  TGI: > 100 µM
[5]
  TGI: > 100 µM
[6]
  TGI: > 100 µM
[7]
  TGI: > 100 µM
[8]
  TGI: > 100 µM
[9]
  TGI: > 100 µM
[10]
  TGI: > 100 µM

## CC1(C)CC(C(=O)OCCCCCCCCCCC[P+](c2ccccc2)(c2ccccc2)c2ccccc2)C(C)(C)N1O (stereo not drawn)
[1]
  GI50: 0.151 µM
  TGI: 1.13 µM
[3]
  GI50: 0.972 µM
  TGI: 2.29 µM
[4]
  GI50: 0.653 µM
  TGI: 1.97 µM
[5]
  GI50: 0.168 µM
  TGI: 0.33 µM
[7]
  GI50: 0.132 µM
  TGI: 0.835 µM
[8]
  GI50: 0.0355 µM
  TGI: 0.13 µM
[9]
  GI50: 0.249 µM
  TGI: 1.4 µM
[10]
  GI50: 0.781 µM
  TGI: 2.32 µM

## CC(C)(C)COS(=O)OCC(C)(C)C
[1]
  TGI: > 100 µM
[2]
  TGI: > 100 µM
[3]
  TGI: > 100 µM
[4]
  TGI: > 100 µM
[5]
  TGI: > 100 µM
[6]
  TGI: > 100 µM
[7]
  TGI: > 100 µM
[8]
  TGI: > 100 µM
[9]
  TGI: > 100 µM
[10]
  TGI: > 100 µM

## O=C1CNc2cc(N3CCCCC3)ccc2N1
[1]
  TGI: > 100 µM
[2]
  TGI: > 100 µM
[3]
  TGI: > 100 µM
[4]
  TGI: > 100 µM
[6]
  TGI: > 100 µM
[7]
  TGI: > 100 µM
[8]
  TGI: > 100 µM
[9]
  TGI: > 100 µM

## NC(N)=N/N=C/c1c(-c2cccs2)nc2n1CCS2
[1]
  GI50: 14.2 µM
  TGI: 29.2 µM
[2]
  GI50: 12.5 µM
  TGI: 32.4 µM
[3]
  GI50: 70.4 µM
  TGI: > 100 µM
[5]
  GI50: 18.1 µM
  TGI: 40.4 µM
[6]
  GI50: 18.6 µM
  TGI: 39.9 µM
[7]
  GI50: 15.5 µM
  TGI: 32.7 µM

## Cc1ccc(S(=O)(=O)Nc2cc(=O)[nH]c3c2CCC3)cc1
[1]
  TGI: > 100 µM
[2]
  TGI: > 100 µM
[3]
  TGI: > 100 µM
[4]
  TGI: > 100 µM
[5]
  TGI: > 100 µM
[6]
  TGI: > 100 µM
[7]
  TGI: > 100 µM
[8]
  TGI: > 100 µM
[9]
  TGI: > 100 µM
[10]
  TGI: > 100 µM

## CS(=O)(=O)Nc1cccc(-c2ccc3ncnc(Nc4cncc(Cl)c4)c3c2)c1
[1]
  GI50: 2.92 µM
  TGI: > 100 µM
[2]
  GI50: 2.63 µM
  TGI: > 100 µM
[6]
  GI50: 2.14 µM
  TGI: 6.77 µM
[8]
  GI50: 2.66 µM
  TGI: 9.2 µM
[9]
  GI50: 4.16 µM
  TGI: > 100 µM
[10]
  GI50: 2.57 µM
  TGI: > 100 µM

## CC12OC(C(=O)C13CCC3)C1C(=O)c3c(O)ccc(O)c3C(=O)C12 (stereo not drawn)
[1]
  GI50: 2.91 µM
  TGI: 10.5 µM
[2]
  GI50: 0.0256 µM
  TGI: 0.0729 µM
[3]
  GI50: 2.82 µM
  TGI: 9.06 µM
[4]
  GI50: 2.49 µM
  TGI: 6.35 µM
[5]
  GI50: 3.14 µM
  TGI: > 100 µM
[6]
  GI50: 0.336 µM
  TGI: 3.11 µM
[7]
  GI50: 0.62 µM
  TGI: 2.71 µM
[8]
  GI50: 0.569 µM
  TGI: 2.39 µM
[9]
  GI50: 4.06 µM
  TGI: > 100 µM
[10]
  GI50: 0.817 µM
  TGI: 2.62 µM
